The values below are quoted from earlier work in patent publication US12552830B2, “Steroidal compound derivatives as therapeutic agents” (priority 2020, dated 2026).

The subject of data set [1] is human umbilical endothelial cell (HUVEC).
For the next data set, the system named is HIV. The note with it: latent CD4+T cells, in vitro.
For data set [2], the system named is transactivator of transcription (Tat).

pIC50: −log10 of the molar value. “Also recorded” adds a separate entry of the source.

As usually defined, the pIC50 is the negative decadic logarithm of the IC50, by convention in mol/L. Regarding cortistatin A, the pIC50 in data set [1] (HUVECs, read-out: IC50, selective anti-proliferative activity of HUVECs) was 8.74. Moreover, in data set [1] (over NHDF, KB3-1, K562 and Neuro2A cells), the “selectivity for HUVECs over other cell lines” value is 3000 fold.
With `CN(C)[C@H]1C[C@@]23CC[C@@]4(O2)C(=CC[C@]2(C)C(c5ccc6ccncc6c5)=CCC24)C=C3[C@@H](O)[C@@H]1O` (stereo partly shown) [dCA, didehydro-cortistatin A], in the data set on HIV, the “viral reactivation of HIV” value is “prevents viral reactivation of HIV in vitro; also recorded: prevents viral reactivation in latent CD4+T cells in vitro”. In addition, in data set [2], the “inhibition of Tat” value is reported as “most potent inhibitor of transactivator of transcription (Tat)”.
